Measurements reported in PMC6272887, “Discovery of Potent c-MET Inhibitors with New Scaffold Having Different Quinazoline, Pyridine and Tetrahydro-Pyridothienopyrimidine Headgroups” (Molecules, 2016).
Where two headings read alike, the source gives them in different places.

Experiments:
[1] = biological target: T1, c-MET (Homo sapiens, UniProt P08581); test: In vitro kinase assay (HTScan MET Kinase Assay Kit, colorimetric ELISA); format: biochemical; details: ATP 10 µM; three independent determinations; read-out: Enzymatic Inhibition (IC50, µM) c-MET
T1 construct: purchased Cell Signaling Technology, Inc
Procedure: In vitro kinase inhibitory ability was determined using HTScan MET Kinase Assay Kit, HTScan VEGF Receptor 2 Kinase Assay Kit, HTScan c-Kit Kinase Assay Kit, HTScan PDGF Receptor β Kinase Assay Kit and HTScan EGFR Kinase Assay Kit(purchased from Cell Signaling Technology, Inc. Danvers, MA, USA) by colorimetric ELISA assay according to the manufacturer’s instructions. Briefly, reaction cocktail containing recombinant human MET kinase or other kinases were incubated with various concentrations of tested compounds or DMSO (0.1%) for 5 min at room temperature, and then ATP/substrate peptide cocktail was added to the pre-incubated reaction cocktail. After incubation at room temperature for 30 min, the reaction was stopped and transferred to a 96-wellstreptavidin-coated plate, and incubated for 1 h at room temperature. Primary antibody (phosphorylated tyrosine monoclonal antibody (pTyr-100), 1:1000 in PBS/T with 1% bovine serum albumin (BSA)) was added into per well until the wells were washed thrice with PBS/T. After incubated at room temperature for 1 h, phosphorylation of the substrate was monitored with HRP-labeled anti-mouse IgG antibody (1:500 in PBS/T with 1% BSA), followed by a chromogenic reaction. Finally, the kinase assay was detected at 450 nm with microplate reader. The reaction processed with only DMSO (0.1%) served as a vehicle control. […] The kinase assay was performed thrice independently.

[2] = test system: HeLa (human cervical carcinoma); test: Cell proliferative assay (MTT), HeLa; format: cell-based; details: HeLa cells, read-out: Proliferative Inhibition (IC50, µM) HeLa
Procedure: (§1) The anti-proliferative activities of synthesized compounds against HeLa, Hep-G2 and MCF-7 cells were evaluated by MTT assay. HeLa cells were grown to log phase in RPMI 1640 medium supplemented with 10% fetal bovine serum. Hep-G2 and MCF-7 cells were grown to log phase in DMEM medium supplemented with 10% fetal bovine serum. After diluting to […] with the complete medium, 100 µL of the obtained cell suspension was added to each well of 96-well culture plates. The subsequent incubation was permitted at 37 °C, 5% CO2 atmosphere for 48 h before the anti-proliferative assessments. Tested samples at pre-set concentrations were added to 6 wells. Before the anti-proliferative assessments, 20 µL of PBS containing 2.5 mg∙mL^−1 of MTT was added to each well. Four h later, 100 µL extraction solution (DMSO) was added to each well and the optical density was measured at a wavelength of 570 nm on an ELISA microplate reader.

[3] = test system: Hep-G2 (human liver cancer); test: Cell proliferative assay (MTT), Hep-G2; format: cell-based; details: read-out: Proliferative Inhibition (IC50, µM) Hep-G2
Procedure: as §1

[4] = test system: MCF-7 (human breast cancer); test: Cell proliferative assay (MTT), MCF-7; format: cell-based; details: MCF-7 cells, read-out: Proliferative Inhibition (IC50, µM) MCF-7
Procedure: as §1

[5] = Homo sapiens, HepG2, Hep-G2 cells

T1 sequence (P08581 25-1390): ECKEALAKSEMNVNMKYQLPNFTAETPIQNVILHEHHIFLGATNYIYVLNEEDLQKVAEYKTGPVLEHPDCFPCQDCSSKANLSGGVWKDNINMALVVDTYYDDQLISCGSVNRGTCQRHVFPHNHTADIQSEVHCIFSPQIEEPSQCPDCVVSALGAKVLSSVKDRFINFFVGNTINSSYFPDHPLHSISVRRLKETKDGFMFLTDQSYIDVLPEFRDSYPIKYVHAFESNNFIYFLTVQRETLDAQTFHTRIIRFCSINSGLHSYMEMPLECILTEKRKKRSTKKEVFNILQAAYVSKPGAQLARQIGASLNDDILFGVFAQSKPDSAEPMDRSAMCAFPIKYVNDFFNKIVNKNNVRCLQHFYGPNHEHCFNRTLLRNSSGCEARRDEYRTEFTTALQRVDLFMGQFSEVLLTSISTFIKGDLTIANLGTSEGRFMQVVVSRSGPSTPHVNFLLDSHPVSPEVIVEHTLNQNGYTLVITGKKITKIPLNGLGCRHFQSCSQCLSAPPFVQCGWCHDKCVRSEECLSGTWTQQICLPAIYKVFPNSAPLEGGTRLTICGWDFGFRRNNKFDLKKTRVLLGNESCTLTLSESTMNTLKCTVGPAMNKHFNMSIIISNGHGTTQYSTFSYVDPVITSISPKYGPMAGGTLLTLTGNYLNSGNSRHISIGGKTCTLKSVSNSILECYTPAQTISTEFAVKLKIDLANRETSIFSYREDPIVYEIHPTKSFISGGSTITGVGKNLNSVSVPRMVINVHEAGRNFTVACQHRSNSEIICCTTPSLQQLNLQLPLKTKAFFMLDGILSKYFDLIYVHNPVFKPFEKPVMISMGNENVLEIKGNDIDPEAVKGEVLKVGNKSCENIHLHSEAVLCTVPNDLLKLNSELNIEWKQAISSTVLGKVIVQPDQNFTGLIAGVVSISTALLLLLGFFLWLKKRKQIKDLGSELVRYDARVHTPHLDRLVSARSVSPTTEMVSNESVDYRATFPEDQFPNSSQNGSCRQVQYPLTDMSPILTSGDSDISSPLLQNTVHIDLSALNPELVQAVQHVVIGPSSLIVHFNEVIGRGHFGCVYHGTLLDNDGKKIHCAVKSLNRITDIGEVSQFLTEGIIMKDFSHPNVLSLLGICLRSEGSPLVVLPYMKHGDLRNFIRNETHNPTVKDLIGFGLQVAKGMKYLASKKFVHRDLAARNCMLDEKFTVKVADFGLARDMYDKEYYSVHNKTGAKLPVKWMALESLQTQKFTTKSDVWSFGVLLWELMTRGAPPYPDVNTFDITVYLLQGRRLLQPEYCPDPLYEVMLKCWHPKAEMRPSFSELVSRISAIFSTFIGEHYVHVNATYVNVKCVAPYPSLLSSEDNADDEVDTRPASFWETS

Compound	IC50 [1]	IC50 ([2]; Homo sapiens, HeLa)	IC50 [3, 5]	IC50 ([4]; Homo sapiens, MCF7, MTT assay)	melting point	IC50 [2]	IC50 ([3]; Hep-G2 cells)	IC50 ([4]; MTT assay)
COc1cc2ncnc(Oc3cccc(C(=O)Nc4cc(C(C)(C)C)nn4-c4ccccc4)c3)c2cc1OC [Compound 9a, N-(3-(tert-butyl)-1-phenyl-1H-pyrazol-5-yl)-3-((6,7-dimethoxyquinazolin-4-yl)oxy)benzamide]	8.4 ± 0.6 µM	28.7 ± 1.1 µM	38.5 ± 1.3 µM	46.1 ± 0.8 µM	217 to 219 °C	–	–	–
CNC(=O)c1cc(Oc2cccc(C(=O)Nc3cc(C(C)(C)C)nn3-c3ccccc3)c2)ccn1 [Compound 9b]	> 10 µM	> 100 µM	> 100 µM	59.7 ± 1.3 µM	–	–	–	–
CC(C)(C)OC(=O)N1CCc2c(sc3ncnc(Oc4cccc(C(=O)Nc5cc(C(C)(C)C)nn5-c5ccccc5)c4)c23)C1 [Compound 9c, tert-butyl 4-{3-((3-(tert-butyl)-1-phenyl-1H-pyrazol-5-yl)carbamoyl)phenoxy}-5,6-dihydropyrido(4’,3’:4,5)thieno(2,3-d)pyrimidine-7(8H)-carboxylate]	> 10 µM	> 100 µM	> 100 µM	66.7 ± 1.5 µM	–	–	–	–
COc1ccc(NC(=O)c2cccc(Oc3ncnc4cc(OC)c(OC)cc34)c2)cc1OC [Compound 11a, N-(3,4-dimethoxyphenyl)-3-((6,7-dimethoxyquinazolin-4-yl)oxy)benzamide]	0.52 ± 0.05 µM	14.1 ± 0.16 µM	> 100 µM	3.4 ± 0.21 µM	220 to 222 °C	–	–	–
COc1cc2ncnc(Oc3cccc(C(=O)Nc4ccc(Cl)cc4)c3)c2cc1OC [Compound 11b, N-(4-chlorophenyl)-3-((6,7-dimethoxyquinazolin-4-yl)oxy)benzamide]	0.12 ± 0.03 µM	1.8 ± 0.06 µM	9.2 ± 0.17 µM	7.8 ± 0.14 µM	203 to 205 °C	–	–	–
COc1cc2ncnc(Oc3cccc(C(=O)Nc4ccc(F)cc4)c3)c2cc1OC [Compound 11c, 3-((6,7-dimethoxyquinazolin-4-yl)oxy)-N-(4-fluorophenyl)benzamide]	0.08 ± 0.04 µM	0.9 ± 0.12 µM	10.1 ± 0.2 µM	5.2 ± 0.36 µM	178 to 180 °C	–	–	–
CNC(=O)c1cc(Oc2cccc(C(=O)Nc3ccc(OC)c(OC)c3)c2)ccn1 [Compound 11d, 4-{3-((3,4-dimethoxyphenyl)carbamoyl)phenoxy}-N-methylpicolinamide]	> 10 µM	> 100 µM	> 100 µM	71.2 ± 0.34 µM	–	–	–	–
CNC(=O)c1cc(Oc2cccc(C(=O)Nc3ccc(Cl)cc3)c2)ccn1 [Compound 11e, 4-{3-((4-chlorophenyl)carbamoyl)phenoxy}-N-methylpicolinamide]	7.4 ± 0.07 µM	26.4 ± 0.2 µM	> 100 µM	34.5 ± 0.36 µM	–	–	–	–
CNC(=O)c1cc(Oc2cccc(C(=O)Nc3ccc(F)cc3)c2)ccn1 [Compound 11f, 4-{3-((4-fluorophenyl)carbamoyl)phenoxy}-N-methylpicolinamide]	5.3 ± 0.05 µM	27.8 ± 0.34 µM	> 100 µM	42.1 ± 0.27 µM	–	–	–	–
COc1ccc(NC(=O)c2cccc(Oc3ncnc4sc5c(c34)CCN(C(=O)OC(C)(C)C)C5)c2)cc1OC [Compound 11g, tert-butyl 4-{3-((3,4-dimethoxyphenyl)carbamoyl)phenoxy}-5,6-dihydropyrido(4’,3’:4,5)thieno(2,3-d)pyrimidine-7(8H)-carboxylate]	1.4 ± 0.1 µM	4.4 ± 0.26 µM	> 100 µM	17.3 ± 0.38 µM	103 to 105 °C	–	–	–
CC(C)(C)OC(=O)N1CCc2c(sc3ncnc(Oc4cccc(C(=O)Nc5ccc(Cl)cc5)c4)c23)C1 [Compound 11h, tert-butyl 4-{3-((4-chlorophenyl)carbamoyl)phenoxy}-5,6-dihydropyrido(4’,3’:4,5)thieno(2,3-d)pyrimidine-7(8H)-carboxylate]	0.25 ± 0.08 µM	10.7 ± 0.18 µM	61.9 ± 0.23 µM	22.9 ± 0.22 µM	–	–	–	–
CC(C)(C)OC(=O)N1CCc2c(sc3ncnc(Oc4cccc(C(=O)Nc5ccc(F)cc5)c4)c23)C1 [Compound 11i, tert-butyl 4-{3-((4-fluorophenyl)carbamoyl)phenoxy}-5,6-dihydropyrido(4’,3’:4,5)thieno(2,3-d)pyrimidine-7(8H)-carboxylate]	0.05 ± 0.02 µM	1.5 ± 0.11 µM	23.2 ± 0.36 µM	1.1 ± 0.31 µM	–	–	–	–
N-(4-fluorophenyl)-N-{4-((2-(methylcarbamoyl)pyridin-4-yl)oxy)phenyl}cyclobutane-1,1-dicarboxamide [Compound 13f]	> 10 µM	–	–	–	–	87.8 ± 0.13 µM	> 100 µM	> 100 µM
N-(4-fluorophenyl)-N-{4-((2-(methylcarbamoyl)pyridin-4-yl)oxy)phenyl}cyclopropane-1,1-dicarboxamide [Compound 13e]	> 10 µM	–	–	–	–	66.7 ± 0.36 µM	> 100 µM	> 100 µM

Now from value to compound, other results behind:

IC50 [1]	IC50 ([2]; Homo sapiens, HeLa)	IC50 [3, 5]	IC50 ([4]; Homo sapiens, MCF7, MTT assay)	melting point	Compound	IC50 [2]	IC50 ([3]; Hep-G2 cells)	IC50 ([4]; MTT assay)
7.1 ± 0.18 µM	> 100 µM	> 100 µM	71.8 ± 0.31 µM	210 to 212 °C	COc1cc2ncnc(Oc3ccc(NC(=O)C(C)(C)C(=O)Nc4ccc(F)cc4)cc3F)c2cc1OC [Compound 13a, N^1-{4-((6,7-dimethoxyquinazolin-4-yl)oxy)-3-fluorophenyl}-N^3-(4-fluorophenyl)-2,2-dimethylmalonamide]	–	–	–
1.2 ± 0.06 µM	50.1 ± 0.25 µM	49.1 ± 0.3 µM	> 100 µM	250 to 252 °C	COc1cc2ncnc(Oc3ccc(NC(=O)C4(C(=O)Nc5ccc(F)cc5)CCC4)cc3F)c2cc1OC [Compound 13c, N-{4-((6,7-dimethoxyquinazolin-4-yl)oxy)-3-fluorophenyl}-N-(4-fluorophenyl)cyclobutane-1,1-dicarboxamide]	–	–	–
> 10 µM	> 100 µM	> 100 µM	91.2 ± 0.26 µM	113 to 115 °C	CNC(=O)c1cc(Oc2ccc(NC(=O)C(C)(C)C(=O)Nc3ccc(F)cc3)cc2)ccn1 [Compound 13d, N^1-(4-fluorophenyl)-2,2-dimethyl-N^3-{4-((2-(methylcarbamoyl)pyridin-4-yl)oxy]phenyl}malonamide]	–	–	–
9.4 ± 0.6 µM	> 100 µM	> 100 µM	27.7 ± 0.35 µM	126 to 128 °C	CC(C)(C)OC(=O)N1CCc2c(sc3ncnc(Oc4ccc(NC(=O)C(C)(C)C(=O)Nc5ccc(F)cc5)cc4F)c23)C1 [Compound 13g, tert-butyl-4-{2-fluoro-4-(3-((4-fluorophenyl)amino)-2,2-dimethyl-3-oxopropanamido)phenoxy}-5,6-dihydropyrido(4’,3’:4,5)thieno(2,3-d)pyrimidine-7(8H)-carboxylate]	–	–	–
0.25 ± 0.08 µM	4.2 ± 0.31 µM	43.2 ± 0.26 µM	21.7 ± 0.16 µM	101 to 103 °C	CC(C)(C)OC(=O)N1CCc2c(sc3ncnc(Oc4ccc(NC(=O)C5(C(=O)Nc6ccc(F)cc6)CCC5)cc4F)c23)C1 [Compound 13i, tert-butyl-4-{2-fluoro-4-(1-((4-fluorophenyl)carbamoyl)cyclobutanecarboxamido)phenoxy}-5,6-dihydropyrido(4’,3’:4,5)thieno(2,3-d)pyrimidine-7(8H)-carboxylate]	–	–	–
